One data set relates to H. contortus xL3s. The data set can be described thus: Dose-response evaluation, xL3 motility. The format is cell-based. The conditions noted are these: Haemonchus contortus, 168 h, analog series; read-out: xL3 motility reduction (IC50 in µM). How it is done: (§1) These evaluations were carried out to estimate the half-maximal inhibitory concentrations (IC50 values) for hit compounds against H. contortus xL3s. With reference to the two positive-control compounds (monepantel and moxidectin), IC50 values for compounds were estimated ([Preston et al., 2015]; [Taki et al., 2021a]) using two-fold serial dilution (in LB*; 9 points from 50 μM to 0.2 µM) in 96-well plates (cat. no. 3596; Corning) with larvae at a density of 300 H. contortus xL3s in 100 µl per well. Plates containing H. contortus xL3s were incubated at 38°C, 10% (v/v) CO2 and >90% relative humidity.
(§2) Compound concentrations were log10-transformed and fitted using a variable slope four-parameter equation, constraining the highest value to 100% employing a least squares (ordinary) fit model using GraphPad Prism software (v.9.1.2). Compounds were tested by three independent experiments in triplicate. A one-way analysis of variance (ANOVA) with a Tukey’s multiple comparison test or an unpaired t-test was used to establish statistically significant differences in larval motility or development.

For data set [1], the system named is H. contortus fourth-stage larvae (L4s) development. Kind of data set: Dose-response evaluation, L4 development. Conditions: Haemonchus contortus; 168 h, analog series; read-out: L4 development inhibition (IC50 in µM). The format is cell-based, Haemonchus contortus. As for the experimental part:
as §1
as §2, with “The motility of H. contortus xL3s and L4 development were measured following 168 h of incubation with compound ([Taki et al., 2021a]). Compound concentrations” for “Compound concentrations”

Another data set has as its system eggs of H. contortus. The data set can be described thus: Egg hatch assay. In kind it is cell-based. Conditions: Haemonchus contortus, 48 h; read-out: Egg hatch inhibition (IC50 in µM). As for the experimental part:
Compounds were also assessed for their effect on the hatching of eggs of H. contortus in vitro. To do this, eggs were isolated from the faeces from sheep with patent (30 day-) H. contortus infection by sucrose flotation ([Mes et al., 2007]). Eggs were suspended in H2O at a concentration of one egg per µl. The eggs were dispensed into wells (in triplicate; 100 eggs per well) and incubated with two-fold serial dilutions (9 points from 50 μM to 0.2 µM in H2O) of individual test or control compounds for 48 h at 27°C and >90% relative humidity; wells with no compound were also included. The numbers (percentages) of eggs from which first-stage larvae (L1s) hatched were counted using a light microscope (M80, Leica) at a 40-times magnification. With reference to positive-control compounds (i.e., monepantel and moxidectin), IC50 values of compounds were calculated.

Data set [2] can be described thus: Cellular toxicity in HepG2 cells (crystal violet). The conditions noted are these: human, HepG2 human hepatoma cells; HepG2, 48 h; read-out: Cytotoxicity (48 h) CC50. The format is cell-based, human. As for the experimental part: (§3) The toxicities of compounds on cell and mitochondria were assessed to estimate their half-maximal cytotoxic concentrations (CC50) and half-maximal mitotoxic concentrations (MC50), respectively. HepG2 human hepatoma cells were seeded into wells of a 96-well plate at a density of 5.5 × 10^4 cells per well in 80 µl of Dulbecco’s modified eagle medium (DMEM; with GlutaMax™ cat. no. 10566016 or 4 mM L-glutamine cat. no. 11966025; Thermo Fisher Scientific), supplemented with 25 mM D-glucose (cytotoxicity) or D-galactose (mitotoxicity), 10% (v/v) inactivated foetal bovine serum (iFBS), 100 IU/ml of penicillin, 100 μg/ml of streptomycin and 0.25 μg/ml of amphotericin B (designated DMEM*). Cells were allowed to adhere for 16 h at 37°C and 5% (v/v) CO2 at > 90% relative humidity, then, incubated for 48 h with individual, serially-diluted compounds (two-fold serial dilution in DMEM*; […]) in a final volume of 100 µl. For the assessment of toxicity on mitochondria, cells were starved of serum (DMEM* without iFBS) for 4 h prior to the 48 h-incubation with compounds ([Swiss and Will, 2011]; [Kamalian et al., 2015]). Two positive control compounds, doxorubicin (cytotoxic control) and M-666 (mitotoxic control) were each added to three individual wells in each 96-well plate at a single concentration of 10 µM. DMEM* + 0.25% (v/v) DMSO was added to 12 wells in each plate as negative controls. Monepantel and moxidectin were also serially diluted — prepared in the same manner as test compounds — and used as (“non-toxic”) reference compounds. After 48 h of incubation, cell viability was determined by the crystal violet staining method ([Śliwka et al., 2016]). The absorbance (595 nm) of treated cells was normalised with reference to the negative control (100% viability). To determine the CC50 and MC50 values, compound concentrations were log10-transformed, baseline-corrected using a respective positive control (doxorubicin or M-666) and fitted using a variable slope four-parameter equation with a least squares (ordinary) fit model using GraphPad Prism software (v.9.1.2). Compounds and controls were tested in triplicate.

The subject of data set [3] is mitochondria of HepG2 human hepatoma cells. Kind of data set: Mitochondrial toxicity in HepG2 cells (galactose medium). The format is cell-based. The conditions noted are these: HepG2, 48 h. As for the experimental part:
as §3

Data set [4] relates to exsheathed third-stage larvae (xL3s) of H. contortus. The data set can be described thus: High throughput screen, xL3 motility (infrared light beam-interference). The format is cell-based. The conditions noted are these: Haemonchus contortus, 90 h, read-out: Motility reduction at 90 h (%). As for the experimental part: An established platform was used for compound screening ([Taki et al., 2021a]). Using a semi-automated liquid handling robot (VIAFLO ASSIST PLUS, Integra Biosciences), compounds were individually diluted to […] in LB* containing 0.2% (v/v) DMSO and then dispensed in 20 µl into the wells of sterile 384-well flat bottom microtitre plates (cat. no. 3680; Corning); 320 compounds were arrayed on each plate, with 16 wells being negative controls (with LB* + 0.2% DMSO) and four wells containing each monepantel (Zolvix; Elanco), moxidectin (Cydectin; Virbac), monepantel + abamectin (Zolvix Plus; Elanco) and compound MIPS-0018666 (abbreviated here as M-666) ([Le et al., 2018]) as positive controls (20 µM). Following the dilution and dispensing of compounds into plates, 80 H. contortus xL3s in 20 μl of LB* were transferred to individual wells; after this step, the final concentrations were 20 µM of test- or positive-control compound, and 0.2% of DMSO. During dispensing, xL3s were maintained in a homogenous suspension using a constant stream of bubbles produced employing an aquarium pump (H2Pro). Plates containing H. contortus xL3s were incubated at 38 °C, 10% (v/v) CO2 and >90% relative humidity.
After 90 h of incubation with compounds (20 μM), H. contortus xL3s motility was measured for 15 min in individual wells of each plate by infrared light beam-interference ([Simonetta and Golombek, 2007]) using a WMicroTracker ONE instrument (Phylumtech). Raw data captured were normalised against measurements obtained for the positive (monepantel) and negative (LB* + 0.2% DMSO) controls to remove plate-to-plate variation by calculating the percentage of motility using the program GraphPad Prism (v.9.1.2; GraphPad Software). A compound was considered active (“hit”) if it reduced larval motility by ≥ 70%. To continually assess the performance of the screening assay, the Z′-factor ([Zhang et al., 1999]) was calculated (using data for the DMSO and the M-666 controls) for individual plates (n = 43) and was consistently ≥0.7; reliable assays achieve a Z′-factor of between 0.5 and 1. The signal to background (S/B) ratio (for the same controls) ([Sui and Wu, 2007]) was consistently >200.

Data set [5] relates to H. contortus xL3 to L4 development. Kind of data set: High throughput screen, larval development and phenotype at 168 h. In kind it is cell-based, Haemonchus contortus. Conditions: for Abnormal phenotype detected at 168 h: 20 µM; for inhibition at 20 µM: Haemonchus contortus, development to L4. As for the experimental part: Following the measurement of xL3 motility, plates were incubated again for 78 h (i.e., a total of 168 h) under the same conditions. Thereafter, 40 µl of 1% (v/v) iodine were added to individual wells, and worms examined using a light microscope (M80, Leica) at 60-times magnification to assess larval development, based on the presence/absence of a well-developed pharynx ([Sommerville, 1966]), and/or phenotypic alterations with respect to untreated xL3s.

Here are results for 15 compounds from PMC9616048, “Thermal proteome profiling reveals Haemonchus orphan protein HCO_011565 as a target of the nematocidal small molecule UMW-868” (Frontiers in Pharmacology, 2022).

Molecules are shown by their SMILES.

One may read the IC50 as the concentration at which inhibition is half-maximal. The term CC50 denotes the concentration giving 50% cytotoxicity. As to `CCCc1ccc(-c2nc(-c3ccc(C)cc3)no2)cc1` [Compound A-3136], the IC50 was determined as 4.8 µM with H. contortus xL3s, 12.5 µM in data set [1] and 7.5 µM in the data set with eggs of H. contortus. In addition, in data set [2], the CC50 at 48 h is above 50 µM. Further, the “Mitotoxicity (48 h) MC50” value in data set [3] was above 50.0 µM.
As to `FC(F)(F)Oc1ccc(-c2nc(-c3cccs3)no2)cc1` [Compound A-6316, 3-(Thiophen-2-yl)-5-(4-(trifluoromethoxy)phenyl)-1,2,4-oxadiazole], the results for the concentration for half-maximal inhibition (IC50) (in the data set with H. contortus xL3s; in data set [1]; in the data set on eggs of H. contortus) were 9.8 µM, above 50 µM and above 50 µM, respectively. The CC50 at 48 h in data set [2] was above 50 µM. In addition, the “Mitotoxicity (48 h) MC50” value in data set [3] was above 50.0 µM.
Consider `FC(F)Oc1ccc(-c2nc(-c3ccc(C(F)(F)F)cc3)no2)cc1` [Compound A-6325, 5-(4-(Difluoromethoxy)phenyl)-3-(4-(trifluoromethyl)phenyl)-1,2,4-oxadiazole], for which the IC50 in the data set with H. contortus xL3s is 1.4 µM; in data set [1] it was 3.1 µM; in the data set on eggs of H. contortus, above 50 µM. In addition, the CC50 at 48 h in data set [2] was above 50 µM. The “Mitotoxicity (48 h) MC50” value in data set [3] was 36.3 µM.
In the case of `c1ccc(-c2noc(-c3cccs3)n2)cc1` [Tioxazafen, 3-Phenyl-5-(thiophen-2-yl)-1,2,4-oxadiazole, reference compound], the IC50 (in the data set with H. contortus xL3s; in data set [1]; in the data set with eggs of H. contortus) was above 50 µM in each case. In addition, the CC50 at 48 h in data set [2] is above 50 µM. In addition, in data set [3], the “Mitotoxicity (48 h) MC50” value was above 50.0 µM.
On to `FC(F)Oc1ccc(-c2nc(-c3cccs3)no2)cc1` [Compound A-4340, 5-(4-(Difluoromethoxy)phenyl)-3-(thiophen-2-yl)-1,2,4-oxadiazole], for which the figures for the IC50 (in the data set on H. contortus xL3s; in data set [1]; in the data set with eggs of H. contortus) were 4 µM, 25 µM and above 50 µM, respectively. Further, the CC50 at 48 h in data set [2] was above 50 µM. In addition, the “Mitotoxicity (48 h) MC50” value in data set [3] is above 50.0 µM.
For the compound `c1ccc(-c2nc(-c3cccs3)no2)cc1` [Compound A-4347, 5-Phenyl-3-(thiophen-2-yl)-1,2,4-oxadiazole], the IC50 (with H. contortus xL3s; in data set [1]; in the data set on eggs of H. contortus) was above 50 µM each time. Also, in data set [2], the CC50 at 48 h was above 50 µM. Besides, the “Mitotoxicity (48 h) MC50” value in data set [3] is above 50.0 µM.
For `O=C(c1ccc(-c2cccs2)s1)c1ccc(F)cc1F` [MBHF-hit20, (2,4-difluorophenyl)[5-(2-thienyl)-2-thienyl]methanone], the inhibition at 20 µM in data set [4] worked out at 76.7%; in data set [5], 100%. Also, the “Abnormal phenotype detected at 168 h” value in data set [5] is on record as “Str, Cur”.
As to `O=C(C=CSc1ccc(Cl)cc1)c1cccs1` [MBHF-hit9, 3-[(4-chlorophenyl)thio]-1-(2-thienyl)prop-2-en-1-one], the inhibition at 20 µM in data set [4] stood at 89.4%; in data set [5], 100%.
With `NC(=O)C1CCN(C(=O)c2ccc(Oc3cc(Cl)cc(Cl)c3)o2)CC1` [MBHF-hit15, 1-{[5-(3,5-dichlorophenoxy)-2-furyl]carbonyl}-4-piperidinecarboxamide], the results for the inhibition at 20 µM in data set [4] and in data set [5] were 78.7% and below 80%, respectively.
`FC(F)(F)c1ccc(SCc2ccc(-c3ncns3)cc2)nc1` [MBHF-hit33, 5-[4-({[5-(trifluoromethyl)-2-pyridyl]thio}methyl)phenyl]-1,2,4-thiadiazole]: the inhibition at 20 µM in data set [4] stood at 70.3%. In addition, in data set [5], the “Abnormal phenotype detected at 168 h” value is “Cur, Evi” and the inhibition at 20 µM was in the range of 80 to 99%.
On to `CCCc1ccc(-c2ccc(C#N)cc2)nc1` [MBHF-hit19, 4-(5-propyl-2-pyridyl)benzonitrile], for which the values for the inhibition at 20 µM in data set [4] and in data set [5] were 76.9% and below 80%, respectively.
In the case of `CS(=O)(=O)c1ccc2ccn(O)c2c1` [MBHF-hit29, 6-(methylsulfonyl)-1H-indol-1-ol], the inhibition at 20 µM in data set [4] is 72%; in data set [5], below 80%.
Consider `O=C(c1cc(C(F)(F)F)cc(C(F)(F)F)c1)N1CCC(O)(c2ccc(Cl)cc2)CC1` [MBHF-hit10, [3,5-bis(trifluoromethyl)phenyl][4-(4-chlorophenyl)-4-hydroxypiperidino]methanone], for which the inhibition at 20 µM in data set [4] was 84.2%; in data set [5], below 80%.
As for `c1ccc(COc2ccc(CCC3OCCO3)cc2)cc1` [MBHF-hit32, 2-[4-(benzyloxy)phenethyl]-1,3-dioxolane], the results for the inhibition at 20 µM in data set [4] and in data set [5] were 71.1% and below 80%, respectively.
For `Clc1ccc(Oc2ccnc3cc(Cl)ccc23)cc1` [MBHF-hit26, 7-chloro-4-(4-chlorophenoxy)quinoline], the inhibition at 20 µM in data set [4] was 73.9%. Besides, in data set [5], the “Abnormal phenotype detected at 168 h” value is listed as “Cur, Evi” and the inhibition at 20 µM is 80 to 99%.
